One assay addresses GP IIb/IIIa (Homo sapiens, UniProt P05106+P08514). Nature of the assay: In Vitro Solid Phase Purified GP IIb/IIIa Binding Assay (biotinylated fibrinogen). The settings on record: biotinylated fibrinogen binding to immobilized purified GP IIb/IIIa; mean ± spread; read-out: αIIbβ3 IC50. On the procedure:
In Vitro Solid Phase Purified GP IIb/IIIa Binding Assay
The plate was covered and incubated overnight at 4° C. The GP IIb/IIIa solution was discarded and 150 μL of 5% BSA was added and incubated at RT for 1-3 h. The plate was washed extensively with modified Tyrodes buffer. Biotinylated fibrinogen (25 μL/well) at 2× final concentration was added to the wells that contain the test compounds (25 μL/well). The plate was covered and incubated at RT for 2-4 h. Twenty minutes prior to incubation completion, one drop of Reagent A (VectaStain ABC Horseradish Peroxidase kit, Vector Laboratories, Inc.) and one drop Reagent B were added with mixing to 5 mL modified Tyrodes buffer mix and let stand. The ligand solution was discarded and the plate washed (5×200 μL/well) with modified Tyrodes buffer. […] The Vecta Stain solution was discarded and the wells washed (5×200 μL/well) with modified Tyrodes buffer. Developing buffer (10 mL of 50 mM citrate/phosphate buffer @ pH 5.3, 6 mg o-phenylenediamine, 6 μL 30% H2O2; 50 μL/well) was added and incubated at RT for 3-5 min and then 2 N H2SO4 (50 μL/well) was added.

In another assay the target is T1, human purified αVβ5 (Homo sapiens, UniProt P06756+P18084).
T1 construct: purchased Chemicon International, Inc
T1 sequence (P06756 31-889 limits assumed): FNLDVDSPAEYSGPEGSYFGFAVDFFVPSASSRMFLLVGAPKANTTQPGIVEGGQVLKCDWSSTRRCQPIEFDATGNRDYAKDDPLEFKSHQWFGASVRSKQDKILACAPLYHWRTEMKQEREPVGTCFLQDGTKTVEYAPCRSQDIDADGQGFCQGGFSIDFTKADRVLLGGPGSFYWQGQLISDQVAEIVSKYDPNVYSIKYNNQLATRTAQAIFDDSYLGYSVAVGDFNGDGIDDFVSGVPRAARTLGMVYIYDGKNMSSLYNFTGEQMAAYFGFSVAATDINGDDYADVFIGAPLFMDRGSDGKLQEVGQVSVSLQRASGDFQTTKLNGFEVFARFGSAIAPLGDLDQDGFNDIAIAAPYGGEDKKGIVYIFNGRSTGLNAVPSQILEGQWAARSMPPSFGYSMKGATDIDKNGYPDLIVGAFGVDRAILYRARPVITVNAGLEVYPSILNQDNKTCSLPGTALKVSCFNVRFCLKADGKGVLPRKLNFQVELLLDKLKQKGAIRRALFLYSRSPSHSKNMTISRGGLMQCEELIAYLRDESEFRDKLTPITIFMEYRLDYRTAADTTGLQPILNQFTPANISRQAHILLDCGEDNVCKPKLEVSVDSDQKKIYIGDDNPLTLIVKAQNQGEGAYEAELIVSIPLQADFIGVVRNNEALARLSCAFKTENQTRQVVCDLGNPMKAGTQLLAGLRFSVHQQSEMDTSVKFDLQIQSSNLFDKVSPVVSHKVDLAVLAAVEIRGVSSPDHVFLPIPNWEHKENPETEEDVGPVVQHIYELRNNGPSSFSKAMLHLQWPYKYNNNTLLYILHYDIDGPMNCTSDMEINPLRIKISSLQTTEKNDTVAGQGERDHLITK
T1 sequence (P06756 891-1048 partner limits assumed): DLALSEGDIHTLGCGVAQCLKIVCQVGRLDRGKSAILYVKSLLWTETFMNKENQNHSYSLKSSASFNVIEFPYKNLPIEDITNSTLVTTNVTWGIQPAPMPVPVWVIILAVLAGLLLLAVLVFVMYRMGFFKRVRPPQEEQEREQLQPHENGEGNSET
T1 sequence (P18084 24-799): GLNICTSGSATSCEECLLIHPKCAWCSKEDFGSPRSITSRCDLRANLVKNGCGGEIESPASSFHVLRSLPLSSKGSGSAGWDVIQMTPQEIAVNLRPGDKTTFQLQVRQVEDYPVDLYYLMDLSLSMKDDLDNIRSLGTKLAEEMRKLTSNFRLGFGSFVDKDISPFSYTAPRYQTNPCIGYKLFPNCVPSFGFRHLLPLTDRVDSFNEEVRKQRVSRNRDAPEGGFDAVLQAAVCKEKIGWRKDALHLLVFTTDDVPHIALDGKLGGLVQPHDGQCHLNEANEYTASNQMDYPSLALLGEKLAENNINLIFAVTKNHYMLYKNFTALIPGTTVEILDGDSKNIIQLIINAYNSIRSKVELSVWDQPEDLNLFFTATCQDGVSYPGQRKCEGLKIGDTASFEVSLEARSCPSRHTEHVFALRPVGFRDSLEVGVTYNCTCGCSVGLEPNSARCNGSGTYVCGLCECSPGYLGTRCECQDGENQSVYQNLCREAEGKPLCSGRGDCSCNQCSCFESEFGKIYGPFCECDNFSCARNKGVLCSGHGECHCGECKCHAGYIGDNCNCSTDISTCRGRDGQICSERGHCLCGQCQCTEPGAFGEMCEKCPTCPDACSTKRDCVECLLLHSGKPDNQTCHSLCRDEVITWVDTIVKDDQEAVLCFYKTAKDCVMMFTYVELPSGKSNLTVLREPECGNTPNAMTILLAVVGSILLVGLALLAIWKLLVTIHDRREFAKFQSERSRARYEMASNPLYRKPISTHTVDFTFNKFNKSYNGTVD
Nature of the assay: In Vitro Solid Phase Purified αcβ5 Binding Assay (vitronectin/αVβ5). As to conditions: vitronectin binding to immobilized purified human αVβ5; mean ± spread; read-out: αvβ5 IC50. On the procedure:
(§1) Human αvβ3 (Chemicon International Inc., Temecula, Calif.), at a concentration of 1 μg/ml dissolved in Tris buffer (20 mM Tris, 1 mM CaCl2, 1 mM MgCl2, 10 μM MnCl2, 150 mM NaCl), was immobilized on Immulon 96 well plates (Dynex Technologies, Chantilly, Va.) overnight at 4° C. Plates were washed and treated with blocking buffer (3% BSA in Tris buffer) for 2 h at 37° C. Plates were then rinsed 2 times with assay buffer comprised of Tris buffer. Synthesized compounds were added to wells in duplicate immediately prior to the addition of 2 nM vitronectin (Sigma, St. Louis, Mo.). Following a 3 hour incubation at 37° C., plates were washed 5 times in assay buffer. An anti-human vitronectin IgG rabbit polyclonal antibody (Calbiochem, San Diego, Calif.) was added (1:2000) and plates were incubated for 1 hour at room temperature. VectaStain ABC peroxidase kit reagents (Vector Laboratories, Burlingame, Calif.) employing a biotin labeled anti-rabbit IgG, were utilized for detection of bound antibody. Plates were read at 490 nm on a Molecular Devices (Sunnyvale, Calif.) microplate reader.
In Vitro Solid Phase Purified αcβ5 Binding Assay
All other aspects of the assay including buffers, reagents and incubation times remain unchanged.

A further assay deals with T2, Human αvβ3 (Homo sapiens, UniProt P05106+P06756).
T2 construct: purchased Chemicon International Inc., Temecula, Calif
T2 sequence (P06756 31-889 limits assumed): as the sequence (P06756 31-889 limits assumed) above
T2 sequence (P06756 891-1048 partner limits assumed): as the sequence (P06756 891-1048 partner limits assumed) above
T2 sequence (P05106 27-788): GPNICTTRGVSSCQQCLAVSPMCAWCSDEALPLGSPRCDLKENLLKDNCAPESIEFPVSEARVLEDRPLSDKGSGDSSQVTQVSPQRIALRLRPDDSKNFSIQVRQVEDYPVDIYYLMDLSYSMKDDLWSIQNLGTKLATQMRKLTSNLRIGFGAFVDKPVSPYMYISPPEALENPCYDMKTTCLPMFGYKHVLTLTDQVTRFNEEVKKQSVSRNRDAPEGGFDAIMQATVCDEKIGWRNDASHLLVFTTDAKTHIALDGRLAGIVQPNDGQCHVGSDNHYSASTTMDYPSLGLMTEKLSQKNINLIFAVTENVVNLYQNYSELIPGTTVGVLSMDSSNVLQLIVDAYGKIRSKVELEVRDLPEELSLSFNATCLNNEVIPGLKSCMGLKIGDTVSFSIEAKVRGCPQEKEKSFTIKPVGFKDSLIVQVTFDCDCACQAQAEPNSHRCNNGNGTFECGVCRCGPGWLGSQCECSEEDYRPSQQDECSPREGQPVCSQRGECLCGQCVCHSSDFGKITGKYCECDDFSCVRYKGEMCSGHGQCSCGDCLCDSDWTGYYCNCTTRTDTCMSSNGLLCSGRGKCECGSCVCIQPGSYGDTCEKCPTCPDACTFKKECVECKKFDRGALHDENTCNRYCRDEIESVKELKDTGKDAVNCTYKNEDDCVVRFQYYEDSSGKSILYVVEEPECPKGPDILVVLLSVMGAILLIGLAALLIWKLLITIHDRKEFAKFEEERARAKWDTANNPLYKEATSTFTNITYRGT
Put plainly: In Vitro Solid Phase Purified αvβ3 Binding Assay (vitronectin/αvβ3). The settings on record: vitronectin binding to immobilized purified human αvβ3, mean ± spread. On the procedure:
In Vitro Solid Phase Purified αvβ3 Binding Assay
as §1

The structures appear in SMILES notation. Like-named read-outs stand apart in the source and are kept apart here.

Sequence of GP IIb/IIIa (P08514 32-887 limits assumed): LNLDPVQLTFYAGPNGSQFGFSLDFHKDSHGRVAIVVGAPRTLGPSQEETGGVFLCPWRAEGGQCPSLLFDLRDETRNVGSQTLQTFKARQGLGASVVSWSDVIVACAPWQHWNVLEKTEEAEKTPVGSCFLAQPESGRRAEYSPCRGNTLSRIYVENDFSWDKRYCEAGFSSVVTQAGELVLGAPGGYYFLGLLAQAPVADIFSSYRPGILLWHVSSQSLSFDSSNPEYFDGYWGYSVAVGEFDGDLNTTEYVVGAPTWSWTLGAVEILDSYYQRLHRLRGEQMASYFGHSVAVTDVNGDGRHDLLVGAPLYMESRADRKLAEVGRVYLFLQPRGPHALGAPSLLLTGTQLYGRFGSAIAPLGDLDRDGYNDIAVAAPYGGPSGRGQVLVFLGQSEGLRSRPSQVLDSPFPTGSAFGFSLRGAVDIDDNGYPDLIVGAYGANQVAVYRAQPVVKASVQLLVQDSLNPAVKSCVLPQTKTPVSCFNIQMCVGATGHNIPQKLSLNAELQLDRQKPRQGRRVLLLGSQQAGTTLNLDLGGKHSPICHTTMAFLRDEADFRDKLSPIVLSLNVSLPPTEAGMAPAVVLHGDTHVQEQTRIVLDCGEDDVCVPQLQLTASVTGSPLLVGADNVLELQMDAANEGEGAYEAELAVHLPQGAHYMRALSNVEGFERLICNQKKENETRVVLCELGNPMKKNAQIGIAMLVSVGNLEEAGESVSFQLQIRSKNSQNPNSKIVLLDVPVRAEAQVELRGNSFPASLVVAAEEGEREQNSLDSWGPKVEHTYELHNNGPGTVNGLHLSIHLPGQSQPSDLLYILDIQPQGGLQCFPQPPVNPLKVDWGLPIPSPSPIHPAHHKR
Sequence of GP IIb/IIIa (P08514 891-1039 partner limits assumed): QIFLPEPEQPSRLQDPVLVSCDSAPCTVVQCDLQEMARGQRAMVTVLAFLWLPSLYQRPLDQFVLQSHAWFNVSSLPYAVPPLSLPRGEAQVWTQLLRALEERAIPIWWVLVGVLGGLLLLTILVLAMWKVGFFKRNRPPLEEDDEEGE
Sequence of GP IIb/IIIa (P05106 27-788): as the sequence (P05106 27-788) above

For the compound `COc1cc(C(CC(=O)O)CC2CCN(C(=O)CCc3ccc4c(n3)NCCC4)CC2)ccc1O` (stereo not drawn) [Cpd 76a], the IC50 on GP IIb/IIIa is 10400 nM; at human purified αVβ5, 16.9 ± 2.1 nM; at Human αvβ3 (read-out: αvβ3IC50), 0.0011 ± 0.0002 µM.

In the case of `O=C(O)CC(CC1CCN(C(=O)CCc2ccc3c(n2)NCCC3)CC1)c1cccc(C(F)(F)F)c1` (stereo not drawn) [Cpd 39, 1-[1-oxo-3-(5,6,7,8-tetrahydro-1,8-naphthyridin-2-yl)propyl]-β-[3-(trifluoromethyl)phenyl]-4-piperidinebutanoic acid], the figures for the IC50 on GP IIb/IIIa, at human purified αVβ5 and on Human αvβ3 (read-out: αvβ3IC50) were over 50000 nM, 28.7 ± 13.3 nM and 0.0066 ± 0.0018 µM, respectively.

Regarding `O=C(O)CC(CC1CCN(C(=O)CCc2ccc3c(n2)NCCC3)CC1)c1ccccc1` (stereo not drawn) [Cpd 13, 1-[1-oxo-3-(5,6,7,8-tetrahydro-1,8-naphthyridin-2-yl)propyl]-β-phenyl-4-piperidinebutanoic acid], the IC50 is 11100 ± 3400 nM on GP IIb/IIIa, 36 ± 13.3 nM on human purified αVβ5 and 0.0032 ± 0.0006 µM at Human αvβ3 (read-out: αvβ3IC50).

For the compound `O=C(O)CC(CC1CCN(C(=O)CCc2ccc3c(n2)NCCC3)CC1)c1ccc2ccccc2c1` (single isomer, unassigned) [Cpd 56b, 3-Naphthalen-2-yl-4-[1-(3-5,6,7,8-tetrahydro-[1,8]naphthyridin-2-yl-propionyl)-piperidin-4-yl]-butyric acid], the IC50 is 810 ± 104 nM at human purified αVβ5 and 0.326 ± 0.0894 µM on Human αvβ3 (read-out: αvβ3IC50).

Regarding `COc1ccc(C(CC(=O)O)C2CCN(C(=O)CCCc3ccc4c(n3)NCCC4)CC2)cn1` (stereo not drawn) [Cpd 17, 6-methoxy-β-[1-[1-oxo-4-(5,6,7,8-tetrahydro-1,8-naphthyridin-2-yl)butyl]-4-piperidinyl]-3-pyridinepropanoic acid], the IC50 was found to be 6600 ± 1420 nM on GP IIb/IIIa, 31.3 ± 6 nM at human purified αVβ5 and 0.0008 ± 0.0001 µM at Human αvβ3 (read-out: αvβ3IC50).

Take `O=C(O)CC(CCC1CCN(C(=O)c2cccc(NC3=NCC(O)CN3)c2)CC1)c1cnc2ccccc2c1` (stereo not drawn) [Cpd 49, β-[2-[1-[3-[(1,4,5,6-tetrahydro-5-hydroxy-2-pyrimidinyl)amino]benzoyl]-4-piperidinyl]ethyl]-3-quinolinepropanoic acid]: the IC50 amounted to 160 ± 20 nM at GP IIb/IIIa, 89.5 ± 25.5 nM at human purified αVβ5 and 0.0018 ± 0.0005 µM on Human αvβ3 (read-out: αvβ3IC50).

`O=C(O)CC(CC1CCN(C(=O)CCCc2ccc3c(n2)NCCC3)CC1)c1ccc2c(c1)OCO2` (stereo not drawn) [Cpd 26, β-(1,3-benzodioxol-5-yl)-1-[1-oxo-4-(5,6,7,8-tetrahydro-1,8-naphthyridin-2-yl)butyl]-4-piperidinebutanoic acid]: the IC50 on GP IIb/IIIa was 5920 nM; at human purified αVβ5, 500 nM; on Human αvβ3 (read-out: αvβ3IC50) it was 0.0277 ± 0.0053 µM.

On to `O=C(O)CC(C1CCN(C(=O)CCCc2ccc3c(n2)NCCC3)CC1)C1CNc2ccccc2C1` (single isomer, unassigned) [Cpd 5-3, 1,2,3,4-Tetrahydro-β-[1-[1-oxo-4-(5,6,7,8-tetrahydro-1,8-naphthyridin-2-yl)butyl]-4-piperidinyl]-3-quinolinepropanoic acid], for which the IC50 on human purified αVβ5 was over 5000 nM; at Human αvβ3 (αvβ3IC50 (uM)), 0.161 µM.

For `O=C(O)CC(CCC1CCN(C(=O)c2cccc(NC3=NCC(O)CN3)c2)CC1)c1cccnc1` (stereo not drawn) [Cpd 7, β-[2-[1-[3-[(1,4,5,6-Tetrahydro-5-hydroxy-2-pyrimidinyl)amino]benzoyl]-4-piperidinyl]ethyl]-3-pyridinepropanoic acid], the IC50 at GP IIb/IIIa is 1670 ± 740 nM; at human purified αVβ5, 39.5 ± 8.5 nM; on Human αvβ3 (read-out: αvβ3IC50), 0.0082 ± 0.0014 µM.

For `O=C(O)CC(CC1CCN(C(=O)CCCc2ccc3c(n2)NCCC3)CC1)c1cccc(F)c1` (stereo not drawn) [Cpd 31, β-(3-fluorophenyl)-1-[1-oxo-4-(5,6,7,8-tetrahydro-1,8-naphthyridin-2-yl)butyl]-4-piperidinebutanoic acid], the IC50 at GP IIb/IIIa was 21600 ± 4870 nM; at human purified αVβ5 it was 300 nM; at Human αvβ3 (read-out: αvβ3IC50), 0.033 µM.

Turning to `COc1ccc(C(CCC2CCN(C(=O)CCc3ccc4c(n3)NCCC4)CC2)CC(=O)O)cn1` (single isomer, unassigned) [Cpd 21b, 6-methoxy-β-[2-[1-[1-oxo-3-(5,6,7,8-tetrahydro-1,8-naphthyridin-2-yl)propyl]-4-piperidinyl]ethyl]-3-pyridinepropanoic acid], the IC50 is 1970 nM at GP IIb/IIIa, 280 nM at human purified αVβ5 and 0.405 µM at Human αvβ3 (read-out: αvβ3IC50).

As for `O=C(O)CC(CC1CCN(C(=O)CCCc2ccc3c(n2)NCCC3)CC1)c1cnc2ccccc2c1` (stereo not drawn) [Cpd 29, β-[[1-[1-oxo-4-(5,6,7,8-tetrahydro-1,8-naphthyridin-2-yl)butyl]-4-piperidinyl]methyl]-3-quinolinepropanoic acid], the figures for the IC50 on GP IIb/IIIa, at human purified αVβ5 and on Human αvβ3 (read-out: αvβ3IC50) were 1740 ± 890 nM, 119 ± 15 nM and 0.0022 ± 0.0008 µM, respectively.

As to `O=C(O)CC(CC1CCN(C(=O)CCc2ccc3c(n2)NCCC3)CC1)c1ccc2c(c1)CCO2` (stereo not drawn) [Cpd 46, β-(2,3-dihydro-5-benzofuranyl)-1-[1-oxo-3-(5,6,7,8-tetrahydro-1,8-naphthyridin-2-yl)propyl]-4-piperidinebutanoic acid], the IC50 came to 13600 ± 1330 nM at GP IIb/IIIa, 65.9 ± 17.1 nM at human purified αVβ5 and 0.0035 ± 0.0006 µM on Human αvβ3 (read-out: αvβ3IC50).

`O=C(O)CC(CCC1CCN(C(=O)CCCNc2ccccn2)CC1)c1cnc2ccccc2c1` (stereo not drawn) [Cpd 22, β-[2-[1-[1-oxo-4-(2-pyridinylamino)butyl]-4-piperidinyl]ethyl]-3-quinolinepropanoic acid]: the IC50 on GP IIb/IIIa came out at 430 ± 70 nM; on human purified αVβ5 it was 195 nM; at Human αvβ3 (read-out: αvβ3IC50) it was 0.0046 ± 0.0008 µM.

As to `COc1ncc(C(CC(=O)O)CC2CCN(C(=O)CCc3ccc4c(n3)NCCC4)CC2)cn1` (stereo not drawn) [Cpd 48, 2-methoxy-β-[[1-[1-oxo-3-(5,6,7,8-tetrahydro-1,8-naphthyridin-2-yl)propyl]-4-piperidinyl]methyl]-5-pyrimidinepropanoic acid], the IC50 turned out to be 1210 ± 200 nM on GP IIb/IIIa, 3.3 ± 1.4 nM at human purified αVβ5 and 0.001 ± 0.0005 µM at Human αvβ3 (read-out: αvβ3IC50).

In the case of `O=C(O)CC(c1ccc2c(c1)OCO2)C1CCN(C(=O)CCCc2ccc3c(n2)NCCC3)CC1` (stereo not drawn) [Cpd 15, β-(1,3-benzodioxol-5-yl)-1-[1-oxo-4-(5,6,7,8-tetrahydro-1,8-naphthyridin-2-yl)butyl]-4-piperidinepropanoic acid], the IC50 at GP IIb/IIIa was 4030 ± 430 nM; at human purified αVβ5, 33.4 ± 6.3 nM; on Human αvβ3 (read-out: αvβ3IC50), 0.0019 ± 0.0002 µM.

For the compound `O=C(O)CC(CC1CCN(C(=O)CCc2ccc3c(n2)NCCC3)CC1)c1ccc(-c2ccccc2)c(F)c1` (stereo not drawn) [Cpd 41, β-(2-fluoro[1,1′-biphenyl]-4-yl)-1-[1-oxo-3-(5,6,7,8-tetrahydro-1,8-naphthyridin-2-yl)propyl]-4-piperidinebutanoic acid], the results for the IC50 at GP IIb/IIIa, at human purified αVβ5 and at Human αvβ3 (read-out: αvβ3IC50) were 19300 ± 2600 nM, 873 ± 158 nM and 0.0018 ± 0.001 µM, respectively.

For `O=C(O)CCC1CCN(C(=O)CCc2cccc(NC3=NCCCN3)c2)CC1` [Cpd 2, 1-[1-Oxo-3-[3-[(1,4,5,6-tetrahydro-2-pyrimidinyl)amino]phenyl]propyl]-4-piperidinepropanoic acid], the IC50 came out at 4780 ± 1010 nM on GP IIb/IIIa and 5.4 µM at Human αvβ3 (read-out: αvβ3IC50).

As for `O=C(O)CC(CC1CCN(C(=O)CCc2ccc3c(n2)NCCC3)CC1)C1CNc2ccccc2C1` (single isomer, unassigned) [Cpd 19-3, 1,2,3,4-tetrahydro-β-[[1-[1-oxo-3-(5,6,7,8-tetrahydro-1,8-naphthyridin-2-yl)propyl]-4-piperidinyl]methyl]-3-quinolinepropanoic acid], the IC50 stood at 1170 ± 20 nM at human purified αVβ5 and 0.0447 ± 0.0204 µM at Human αvβ3 (read-out: αvβ3IC50).

Turning to `O=C(O)CC(CC1CCN(C(=O)c2cccc(NC3=NCCN3)c2)CC1)c1cccc(F)c1` (racemic) [Cpd 77], the IC50 on human purified αVβ5 is 789 ± 65 nM; on Human αvβ3 (read-out: αvβ3IC50), 0.138 µM.

With `O=C(O)CC(CCC1CCN(C(=O)CCCNc2ccccn2)CC1)c1cccnc1` (stereo not drawn) [Cpd 9, β-[2-[1-[1-Oxo-4-(2-pyridinylamino)butyl]-4-piperidinyl]ethyl]-3-pyridinepropanoic acid], the IC50 on GP IIb/IIIa was 8510 ± 2360 nM; at Human αvβ3 (read-out: αvβ3IC50) it was over 1 µM.

Values taken from patent publication US7879881B2, “Piperidinyl compounds that selectively bind integrins” (Janssen Pharmaceutica NV, priority 2002, dated 2011).
